ChEMBL document CHEMBL5518193, “Discovery of N-alkyl-N-benzyl thiazoles as novel TRPC antagonists for the treatment of glioblastoma multiforme” (Eur J Med Chem, 2024)
Calls of active or inactive are those of the source. The calls are words filed in the database; no cut-off is given here.

Assays:
[1] = biological target: T1, Short transient receptor potential channel 3 (Homo sapiens, UniProt Q13507); test: Antagonist activity at TRPC3 (unknown origin) assessed as inhibition of channel activity
T1 sequence (Q13507 whole entry): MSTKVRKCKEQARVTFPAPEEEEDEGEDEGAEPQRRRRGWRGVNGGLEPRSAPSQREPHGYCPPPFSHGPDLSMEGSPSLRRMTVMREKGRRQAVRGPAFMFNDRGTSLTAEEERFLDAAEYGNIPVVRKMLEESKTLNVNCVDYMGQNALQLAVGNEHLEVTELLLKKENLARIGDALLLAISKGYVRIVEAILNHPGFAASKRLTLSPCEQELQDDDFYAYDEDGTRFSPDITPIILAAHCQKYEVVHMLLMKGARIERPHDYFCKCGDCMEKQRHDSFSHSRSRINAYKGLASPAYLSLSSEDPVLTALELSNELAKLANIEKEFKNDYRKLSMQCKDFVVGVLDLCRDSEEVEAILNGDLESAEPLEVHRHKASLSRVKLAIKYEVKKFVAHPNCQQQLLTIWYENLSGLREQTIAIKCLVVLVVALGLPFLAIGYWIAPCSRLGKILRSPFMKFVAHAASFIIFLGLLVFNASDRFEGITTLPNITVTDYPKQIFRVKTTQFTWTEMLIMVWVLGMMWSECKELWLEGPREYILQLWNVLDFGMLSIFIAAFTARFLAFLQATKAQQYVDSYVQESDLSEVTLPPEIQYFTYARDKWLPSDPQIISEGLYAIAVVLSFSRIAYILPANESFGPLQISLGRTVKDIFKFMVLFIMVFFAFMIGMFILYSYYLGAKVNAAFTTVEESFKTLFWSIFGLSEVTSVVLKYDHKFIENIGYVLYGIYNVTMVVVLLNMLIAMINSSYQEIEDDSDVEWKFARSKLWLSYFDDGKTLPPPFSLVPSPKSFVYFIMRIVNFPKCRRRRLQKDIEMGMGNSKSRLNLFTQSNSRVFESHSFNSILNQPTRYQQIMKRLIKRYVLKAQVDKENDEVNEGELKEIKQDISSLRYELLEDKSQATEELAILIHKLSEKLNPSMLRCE

[2] = biological target: T2, Short transient receptor potential channel 6 (Mus musculus) (UniProt Q61143); test: Antagonist activity at mouse TRPC6 stably expressed in HEK293 cells assessed as inhibition of calcium influx at 10 uM by calcium fluorescence assay relative to control; assay type: cell-based
T2 sequence (whole entry): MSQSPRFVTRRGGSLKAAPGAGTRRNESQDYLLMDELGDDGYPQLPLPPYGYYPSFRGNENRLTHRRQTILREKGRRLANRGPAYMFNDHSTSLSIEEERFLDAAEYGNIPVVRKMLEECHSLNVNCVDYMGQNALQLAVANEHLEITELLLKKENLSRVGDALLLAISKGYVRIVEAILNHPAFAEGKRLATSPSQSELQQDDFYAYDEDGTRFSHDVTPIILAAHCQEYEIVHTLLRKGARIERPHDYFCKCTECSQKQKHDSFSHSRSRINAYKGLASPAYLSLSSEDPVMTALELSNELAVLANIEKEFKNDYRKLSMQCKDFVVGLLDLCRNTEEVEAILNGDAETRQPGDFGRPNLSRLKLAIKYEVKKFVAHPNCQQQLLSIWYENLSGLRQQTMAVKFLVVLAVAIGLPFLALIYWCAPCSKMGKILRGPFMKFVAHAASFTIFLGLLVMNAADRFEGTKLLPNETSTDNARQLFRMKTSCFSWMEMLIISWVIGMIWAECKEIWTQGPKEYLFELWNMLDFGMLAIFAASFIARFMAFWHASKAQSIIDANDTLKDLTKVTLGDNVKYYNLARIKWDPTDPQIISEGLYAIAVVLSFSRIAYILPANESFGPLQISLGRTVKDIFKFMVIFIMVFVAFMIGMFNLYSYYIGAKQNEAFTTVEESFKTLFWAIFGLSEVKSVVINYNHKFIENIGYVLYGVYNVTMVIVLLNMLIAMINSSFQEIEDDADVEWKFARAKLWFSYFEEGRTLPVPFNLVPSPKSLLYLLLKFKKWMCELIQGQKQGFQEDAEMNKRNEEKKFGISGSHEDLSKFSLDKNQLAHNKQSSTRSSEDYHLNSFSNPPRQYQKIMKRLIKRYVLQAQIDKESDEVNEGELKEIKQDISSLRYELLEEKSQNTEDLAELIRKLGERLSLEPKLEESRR

[3] = biological target: T3, Short transient receptor potential channel 6 (Homo sapiens, UniProt Q9Y210); test: Antagonist activity at TRPC6 (unknown origin) assessed as inhibition of channel activity
T3 sequence (Q9Y210 whole entry): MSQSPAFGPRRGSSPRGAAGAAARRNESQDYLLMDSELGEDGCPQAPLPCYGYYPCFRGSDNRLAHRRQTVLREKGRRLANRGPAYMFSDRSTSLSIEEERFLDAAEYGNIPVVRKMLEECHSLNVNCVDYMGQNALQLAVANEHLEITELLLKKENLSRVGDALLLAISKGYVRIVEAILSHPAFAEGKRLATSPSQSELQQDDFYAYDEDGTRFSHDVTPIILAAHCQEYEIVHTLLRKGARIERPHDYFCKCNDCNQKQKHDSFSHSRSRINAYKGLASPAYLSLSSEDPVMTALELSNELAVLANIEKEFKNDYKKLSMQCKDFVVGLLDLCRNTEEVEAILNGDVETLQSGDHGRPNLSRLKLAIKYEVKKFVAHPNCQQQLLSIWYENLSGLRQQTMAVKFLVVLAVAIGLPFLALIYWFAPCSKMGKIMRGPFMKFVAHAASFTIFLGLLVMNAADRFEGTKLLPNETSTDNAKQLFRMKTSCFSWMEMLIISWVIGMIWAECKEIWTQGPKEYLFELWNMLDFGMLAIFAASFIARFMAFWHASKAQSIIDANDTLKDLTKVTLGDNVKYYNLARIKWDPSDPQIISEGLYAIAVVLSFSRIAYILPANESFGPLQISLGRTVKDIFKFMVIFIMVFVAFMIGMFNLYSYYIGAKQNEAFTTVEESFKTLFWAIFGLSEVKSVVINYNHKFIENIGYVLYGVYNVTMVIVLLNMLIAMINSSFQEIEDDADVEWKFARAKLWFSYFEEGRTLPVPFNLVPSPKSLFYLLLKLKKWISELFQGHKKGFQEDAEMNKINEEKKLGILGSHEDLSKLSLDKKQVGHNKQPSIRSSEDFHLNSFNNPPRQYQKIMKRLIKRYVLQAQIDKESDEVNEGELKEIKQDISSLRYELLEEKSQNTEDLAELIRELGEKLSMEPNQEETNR

U-87 MG = test: Antitumor activity against human U87 cells xenografted in BALB/c nude mouse assessed as tumor growth inhibition at 50 mg/kg/day administered as liposome encapsulated form for 15 days and measured every 3 days by vernier caliper; assay type: functional, U-87MG ATCC; conditions: 360 h, time 15 day, read-out: TGI
[4] = biological target: T4, Short transient receptor potential channel 6 (Homo sapiens) (UniProt Q9Y210); test: Antagonist activity at human TRPC6 assessed as inhibition of channel activity at 10 uM relative to control; conditions: filed as antagonist
T4 sequence (whole entry): T3 sequence (Q9Y210 whole entry)

[5] = biological target: T2, Short transient receptor potential channel 6 (Mus musculus); test: Antagonist activity at mouse TRPC6 stably expressed in HEK293 cells assessed as inhibition of calcium influx at 10 uM by calcium fluorescence assay; assay type: cell-based

| inhibition [2] | inhibition ([2]; filed as antagonist) | Compound | other results |
| --- | --- | --- | --- |
| – | – | CC1CCCN(C(=O)c2nc(Nc3cc4c(cc3F)OCO4)sc2Cl)C1C (stereo not drawn) | IC50 [1]: 5 nM |
| 22.1% | – | CCOC(=O)c1csc(N(CCN)Cc2cccc([N+](=O)[O-])c2)n1 | – |
| – | 59.5% | CCOC(=O)c1csc(N(CCN)Cc2cc(F)ccc2Br)n1 | – |
| – | 81.9% | NCCN(Cc1cccc(C(F)(F)F)c1)c1nc(C(=O)NCCc2ccccc2)cs1 | – |
| 19.3% | – | CCOC(=O)c1csc(NCCN)n1 | – |
| – | 77.6% | CCOC(=O)c1csc(N(CCN)Cc2cccc3ccccc23)n1 | – |
| 10.8% | – | NCCN(Cc1cccc(C(F)(F)F)c1)c1nc(C(=O)Nc2ccc(O)cc2)cs1 | – |
| 30.3% | – | CCOC(=O)c1csc(N(CCNC(=O)OC(C)(C)C)C(=O)c2ccc([N+](=O)[O-])cc2)n1 | – |
| – | 92.2% | CCOC(=O)c1csc(N(CCN)Cc2cccc(C(F)(F)F)c2)n1 | – |
| – | – | C=C[C@@](C)(O)CC[C@H]1C(=C)C[C@H](OC(=O)NC)[C@H]2C(C)(C)CCC[C@]12C | IC50 [1]: 840 nM; IC50 [3]: 5.8 nM |
| 14.7% | – | CCOC(=O)c1csc(N(CCN)Cc2cccc(F)c2F)n1 | – |
| – | – | N#Cc1ccc(O[C@@H]2c3ccccc3C[C@@H]2N2CCC[C@@H](N)C2)cc1 | IC50 [3]: 0.22 nM |
| – | 56.8% | CCOC(=O)c1csc(N(CCN)Cc2ccc3cc(Br)ccc3c2)n1 | – |
| 18.5% | – | NCCN(Cc1cccc(C(F)(F)F)c1)c1nc(C(=O)Nc2ncc[nH]2)cs1 | – |
| 35.6% | – | NCCN(Cc1ccc2ccccc2c1)c1nc(C(=O)NC23CC4CC(CC(C4)C2)C3)cs1 | – |
| – | 84.6% | CCOC(=O)c1csc(N(CCN)Cc2ccc(C(F)(F)F)cc2)n1 | – |
| – | – | CC(C)(C)c1ccc(Oc2ccc(C(=O)N3CCC(c4ccc(N)nn4)CC3)cc2)cc1 | IC50 [3]: 13 nM |
| – | – | CC1CC(C)CN(C(=O)c2csc(Nc3ccc4c(c3)OCO4)n2)C1 (stereo not drawn) | IC50 [1]: 10 nM; IC50 [3]: 10 nM |
| – | – | Cn1nnc2c(C(N)=O)ncn2c1=O [TEMOZOLOMIDE] | inhibition in vivo at 50 mg/kg/day (U-87 MG): 36.5% |

| inhibition [2] | inhibition ([2]; filed as antagonist) | Compound | other results |
| --- | --- | --- | --- |
| 28.3% | – | CCOC(=O)c1csc(N(CCN)Cc2ccc([N+](=O)[O-])cc2)n1 | – |
| 30.5% | – | CCOC(=O)c1csc(N(CCN)Cc2ccccc2)n1 | – |
| 26.1% | – | CCOC(=O)c1csc(N(CCN)Cc2ccc(OC(F)F)cc2)n1 | – |
| – | 50.6% | CCN(CC)CCNC(=O)c1csc(N(CCN)Cc2cccc(C(F)(F)F)c2)n1 | – |
| – | 44.2% | CCOC(=O)c1csc(N(CCN)C(=O)c2ccc(C(F)(F)F)cc2)n1 | – |
| – | 84.8% | COc1cccc2sc(N(CCN(C)C)C(=O)c3ccc4c(c3)CCCC4)nc12 | inhibition [4]: 84.4%; IC50 [3]: 4200 nM |
| – | 40.9% | CCOC(=O)c1csc(N(CCN)Cc2cccc(OC(F)F)c2)n1 | – |
| – | 97.9% | CCOC(=O)c1csc(N(CCN)Cc2ccc3ccccc3c2)n1 | – |
| – | – | Cc1sc(Nc2ccc(Cl)cc2F)nc1C(=O)N1CCC[C@H](C)[C@@H]1C | IC50 [1]: 3 nM; IC50 [3]: 21 nM |
| 23% | – | CCOC(=O)c1csc(N(CCN)C(=O)c2ccc([N+](=O)[O-])cc2)n1 | – |
| – | – | CCOC(=O)N1CCC(C)(C2C=C(O)N3N=C(C)C(c4ccc(F)cc4)C3=N2)CC1 (stereo not drawn) | IC50 [3]: 1000 nM |
| 32.4% | – | CCOC(=O)c1csc(N(CCNS(C)(=O)=O)Cc2ccc3ccccc3c2)n1 | – |
| – | 56.6% | CCOC(=O)c1csc(N(CCN)Cc2ccc3ccccc3n2)n1 | – |
| 18.7% | – | CCOC(=O)c1csc(N(CCNC(=O)OC(C)(C)C)C(=O)c2ccc(C(F)(F)F)cc2)n1 | – |
| – | – | CC(=O)NCCN(Cc1ccc2ccccc2c1)c1nc(C(=O)Nc2ccc(O)cc2)cs1 | inhibition [5]: inactive |
| 0.8% | – | CCOC(=O)c1csc(N(CCNS(N)(=O)=O)Cc2ccc3ccccc3c2)n1 | – |
| 29.2% | – | CCOC(=O)c1csc(N(CCN)Cc2c(F)c(F)c(F)c(F)c2F)n1 | – |
| 29% | – | NCCN(Cc1ccc2ccccc2c1)c1nc(C(=O)O)cs1 | – |
| – | 53.3% | CCN(CC)CCNC(=O)c1csc(N(CCN)Cc2ccc3ccccc3c2)n1 | – |
